Read-outs that look alike come from different tables or passages of the source.
Legend:
[1] = tested on: iPSC-CMs, iPSC-ECs and HUVECs phenotypes; test: ToxPi 2.0 integration of POD values and physicochemical descriptors; set-up: species or system human; settings: ToxPi-scaled (0-1) score; for huvec.cyto.24hr / huvec.mito.24hr / huvec.mitoint.24hr / huvec.nma.24hr / huvec.tc.24hr / huvec.mtl.18hr / huvec.tlps.18hr / huvec.tta.18hr / huvec.ttl.18hr: HUVECs; for huvec.mtl.18hr / huvec.tlps.18hr / huvec.tta.18hr / huvec.ttl.18hr / endo.mtl.18hr / endo.tlps.18hr / endo.tta.18hr / endo.ttl.18hr: tube formation; for cm.amp.avg.90min / cm.amp.cv.90min / cm.bpm.90min / cm.cam.90min / cm.decay.rise.90min / cm.mii.90min / cm.mito.90min / cm.spacing.cv.90min / cm.tc.90min / cm.amp.avg.24hrs / cm.amp.cv.24hrs / cm.bpm.24hrs / cm.cam.24hrs / cm.decay.rise.24hrs / cm.mii.24hrs / cm.mito.24hrs / cm.spacing.cv.24hrs / cm.tc.24hrs: iPSC cardiomyocytes; for endo.cyto.24hr / endo.mito.24hr / endo.mitoint.24hr / endo.nma.24hr / endo.tc.24hr / endo.mtl.18hr / endo.tlps.18hr / endo.tta.18hr / endo.ttl.18hr: iPSC endothelial cells
Text: Phenotypic responses were quantitatively assessed using concentration–response modeling as detailed elsewhere ([Sirenko et al. 2017]). Briefly, phenotypic readouts were normalized to vehicle controls and fit to a four-parameter logistic model in R studio software (version 3.1.1; R Development Core Team). Following EPA guidance on dose–response modeling, a cutoff of one standard deviation across means of vehicle control (i.e., 0.5% vol/vol DMSO in cell culture media) wells was applied to determine the point-of-departure (POD) values ([U.S. EPA 2012]). In the absence of a concentration–response, the highest tested concentration (i.e., 100μM ) was assigned as “no observable adverse effect level.” The concentration–response assessment R script, as well as templates for vehicle and concentration–response data, are available as a supplement to Sirenko et al. ([2017]). The ability of physicochemical properties to predict differences in PODs were evaluated by multiregression and mixed-effects modeling using R.
POD values were then integrated using ToxPi 2.0 ([Marvel et al. 2018]) software. In ToxPi, each slice is representative of cell type– and time-point–specific phenotypes. The area of each slice is proportional to the relative value (e.g., bioactivity or physicochemical descriptor value) of the chemical within the data set. ToxPi scores were used to rank PCBs and their metabolites according to their overall bioactivity and to determine variability in total observable biological responses and chemical characteristics for each major metabolite class and chlorination status (mono-, hexa-chlorinated). Additional visualizations such as dumbbell and principal components analysis plots were generated in R Studio (version 1.1.456; R version 3.5.1; R Development Core Team) using the ggplot2 package.

[2] = tested on: iCell cardiomyocytes (human iPSC-derived cardiomyocytes); test: High-content imaging of cytotoxicity and mitochondrial integrity in iPSC-CMs; type: cell-based; settings: Homo sapiens, Cardiomyocyte, cardiomyocytes (cm)
How it was run: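 Readouts from high-content images were normalized to vehicle controls containing 0.5% vol/vol DMSO. They were fit to a four-parameter logistic model in R. Points of departure were set using a cutoff of one standard deviation across vehicle control means. Where no concentration–response was seen, the top tested concentration of 100μM was assigned as the no observable adverse effect level.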

[3] = 1.5 h, cam, 90 min, read-out: POD cm.cam.90min
[4] = 1.5 h, mii, 90 min, read-out: POD cm.mii.90min
[5] = 1.5 h, mito, 90 min, read-out: POD cm.mito.90min
[6] = 1.5 h, tc, 90 min, read-out: POD cm.tc.90min
[7] = 24 h, cam, 24 hrs, read-out: POD cm.cam.24hrs
[8] = 24 h, mii, 24 hrs, read-out: POD cm.mii.24hrs
[9] = 24 h, mito, 24 hrs, read-out: POD cm.mito.24hrs
[10] = 24 h, tc, 24 hrs, read-out: POD cm.tc.24hrs

For Oc1ccc(O)c(-c2ccc(Cl)cc2)c1 [2',5'-diOH-PCB 3, 4-Chloro-2′,5′-dihydroxybiphenyl], the huvec.cyto.24hr [1] was 0.7001, the huvec.mito.24hr [1] was 0.7865 and the huvec.mitoint.24hr [1] was 0.6634. It also gave a huvec.nma.24hr [1] of 0.309, a huvec.tc.24hr [1] of 0.7001 and a huvec.mtl.18hr [1] of 0.9783. For the same compound, the huvec.tlps.18hr [1] was 0.7891, the huvec.tta.18hr [1] was 0.8497 and the huvec.ttl.18hr [1] was 0.663. The cm.amp.avg.90min [1] was 0.2608, the cm.amp.cv.90min [1] was 0.5898 and the cm.bpm.90min [1] was 0.1802. It also gave a cm.cam.90min [1] of 0.4648, a cm.decay.rise.90min [1] of 0.2325 and a cm.mii.90min [1] of 0.9473. The cm.mito.90min [1] was 0.8423, the cm.spacing.cv.90min [1] was 0.3549 and the cm.tc.90min [1] was 0.4501. The cm.amp.avg.24hrs [1] was 0.4147, the cm.amp.cv.24hrs [1] was 0.7626 and the cm.bpm.24hrs [1] was 0.7331. For the same compound, the cm.cam.24hrs [1] was 0.5361, the cm.decay.rise.24hrs [1] was 0.935 and the cm.mii.24hrs [1] was 1. The cm.mito.24hrs [1] was 1, the cm.spacing.cv.24hrs [1] was 1 and the cm.tc.24hrs [1] was 0.9136. It also gave an endo.cyto.24hr [1] of 0.4719, an endo.mito.24hr [1] of 0.4719 and an endo.mitoint.24hr [1] of 0.1112. The endo.nma.24hr [1] was 0.3504, the endo.tc.24hr [1] was 0.5028 and the endo.mtl.18hr [1] was 0.5595. It also gave an endo.tlps.18hr [1] of 0.8388, an endo.tta.18hr [1] of 0.3744 and an endo.ttl.18hr [1] of 0.3867. The minimal effective concentration [2, 3] was 32.4 µM, the minimal effective concentration [2, 4] was 7.9 µM and the minimal effective concentration [2, 5] was 12.7 µM. The minimal effective concentration [2, 6] was 33.4 µM, the minimal effective concentration [2, 7] was 1.84 µM and the minimal effective concentration [2, 8] was 2.28 µM. It also gave a minimal effective concentration [2, 9] of 0.97 µM and a minimal effective concentration [2, 10] of 1.88 µM.

Clc1ccc(Cl)c(-c2c(Cl)ccc(Cl)c2Cl)c1 [PCB 95, 2,2′,3,5′,6-pentachlorobiphenyl] gave a huvec.cyto.24hr [1] of 0.9485, a huvec.mito.24hr [1] of 1 and a huvec.mitoint.24hr [1] of 0.5155. It also gave a huvec.nma.24hr [1] of 0.5037, a huvec.tc.24hr [1] of 0.9485 and a huvec.mtl.18hr [1] of 0.5568. It also gave a huvec.tlps.18hr [1] of 0, a huvec.tta.18hr [1] of 0 and a huvec.ttl.18hr [1] of 0. For the same compound, the cm.amp.avg.90min [1] was 0.3275, the cm.amp.cv.90min [1] was 0.6707 and the cm.bpm.90min [1] was 0.7438. The cm.cam.90min [1] was 0.4148, the cm.decay.rise.90min [1] was 0.1633 and the cm.mii.90min [1] was 0. The cm.mito.90min [1] was 0.3775, the cm.spacing.cv.90min [1] was 0.2342 and the cm.tc.90min [1] was 0.3895. For the same compound, the cm.amp.avg.24hrs [1] was 0, the cm.amp.cv.24hrs [1] was 0.2056 and the cm.bpm.24hrs [1] was 1. For the same compound, the cm.cam.24hrs [1] was 0.3236, the cm.decay.rise.24hrs [1] was 0.2316 and the cm.mii.24hrs [1] was 0.3974. It also gave a cm.mito.24hrs [1] of 0.5198, a cm.spacing.cv.24hrs [1] of 0.1862 and a cm.tc.24hrs [1] of 0.5603. For the same compound, the endo.cyto.24hr [1] was 0, the endo.mito.24hr [1] was 0 and the endo.mitoint.24hr [1] was 0. For the same compound, the endo.nma.24hr [1] was 0, the endo.tc.24hr [1] was 0 and the endo.mtl.18hr [1] was 0.07537. The endo.tlps.18hr [1] was 0.09893, the endo.tta.18hr [1] was 0.06557 and the endo.ttl.18hr [1] was 0.054. For the same compound, the minimal effective concentration [2, 3] was 36.6 µM, the minimal effective concentration [2, 4] was 100 µM and the minimal effective concentration [2, 5] was 39.6 µM. For the same compound, the minimal effective concentration [2, 6] was 38.7 µM, the minimal effective concentration [2, 7] was 8.98 µM and the minimal effective concentration [2, 8] was 22.2 µM. It also gave a minimal effective concentration [2, 9] of 8.96 µM and a minimal effective concentration [2, 10] of 8.75 µM.

From publication PMC7377239, “Cardiovascular Effects of Polychlorinated Biphenyls and Their Major Metabolites” (Environmental Health Perspectives, 2020)
